Data on five compounds can be found in patent publication US8329416B2, “Stabilized standards for busulfan immunoassay” (Saladax Biomedical Inc., priority 2008, dated 2012).

Usually half-life stands for how long it takes for the measured level to halve. A high value points to slow decline.

Where two headings read alike, the source gives them in different places.

Data set [1] in a line: stability tests of amide of formula II standards in solution. It is filed as physicochemical. Conditions: for time stable: solutions 590 ng/ml to 4720 ng/ml.
The subject of the next data set is antibody to busulfan. Nature of the data set: direct competitive ELISA for busulfan (busulfan-HRP conjugate, antibody-coated plate). Type of data set: binding. The procedure:
For the purpose of determining amide of formula II equivalents to busulfan of formula I and assaying busulfan with the amide standards by Enzyme-Linked Immunosorbent Assay (ELISA) method, polystyrene microtiter plates optimized for protein binding and containing 96 well per plate were used. Each well was coated with an antibody to busulfan produced as described in U.S. Pat. No. 7,238,024 Example 7, by adding 100 μL of antibody at 7.5 μg/mL in 0.05M sodium bicarbonate, pH=9.6 and then were blocked with 400 μL of 5% sucrose, 0.2% sodium caseinate solution for 30 minutes at room temperature. After removal of the post-coat solution the plates dried at 37° C. overnight.
The cross-reactivity of the amide was determined in a direct competitive Enzyme-Linked Immunosorbent Assay (ELISA) for busulfan. This method for measuring busulfan concentrations was performed with the microtiter plates that were sensitized with busulfan antibody described in Example 3. The amide stock solution at 6 mg/mL DMF was serially diluted 5000 ng/mL and 500 ng/mL in a buffer comprising 0.02 M sodium phosphate, 0.15 M NaCl, 0.1% BSA, 0.01% Thimerosal, pH 7.2. To perform the assay 30 μL of busulfan standards from Example 1, and 30 μL of amide of formula II dilutions were pre-diluted in a 96-well plate by the addition of 180 μL of sample pre-dilution buffer consisting of 0.02 M sodium phosphate, 0.15 M NaCl, 0.5% Dextran Sulfate, 0.01% Thimerosal, pH 7.2. 50 μL of all prediluted samples were added to the antibody coated microtiter plate of Example 3. After addition of the samples 50 μL of a busulfan-HRP conjugate at 100 ng/mL in a buffer comprising to 0.02 M sodium phosphate, 0.15 M NaCl, 0.2% BSA, 0.1% ANS (8-anilino-1-naphthalene sulfonic acid), 15 ppm ProClin® Preservative 300 was added. During the following 10 minute incubation (R.T., with shaking) there is a competition between sample (busulfan or amide) and busulfan-HRP for binding with the antibody in the well. Following this incubation the wells of the plate were washed three times with 0.02 M TRIS, 0.9% NaCl, 0.5% polyethylene glycol sorbitan monooleate TWEEN® 80 and 0.001% Thimerosal, pH 7.8 to remove any material that was not bound. To detect the amount of busulfan-HRP bound to the busulfan antibody in the wells, 100 μL of TMB (TMB Liquid Substrate) a substrate for HRP was added. To develop a measurable color in the wells there was a 10 second incubation (R.T., with shaking). Following the incubation 50 μL of stop solution comprising 1.5% sodium fluoride in di H2O was added to each well to stop the color development and after 10 seconds of shaking the absorbance was determined at 650 nm with a 96-well plate reader. The amount of busulfan-HRP in a well was proportional to the absorbance measured and inversely proportional to the amount of busulfan of formulated or amide of formulated in the sample. The absorbance of the color in the wells containing busulfan was compared to that with no busulfan analyte and a standard curve was generated. […] The cross-reactivity was used to determine the concentration of amide necessary to produce a calibration curve equivalent to that of busulfan (Example 6).
Using the busulfan antibody plates (Example 3) in a direct competitive Enzyme-Linked Immunosorbent Assay (ELISA) for busulfan described in Example 4, the GC-MS verified busulfan calibrators (Example 1) were used to generate a curve from 75 ng/mL to 2000 ng/mL and the amide calibrators were read off this standard curve as unknown samples. […] The X axis represents the verified busulfan concentration and the Y axis is the amide standards expressed as busulfan equivalence factor (amide concentration value x 0.107=busulfan equivalence factor e.g. 1410 ng/mL amide x 0.107=150 ng/mL busulfan equivalence).
(ELISA stands for enzyme-linked immunosorbent assay.)

The test system of data set [2] is antibodies specific for busulfan. Description: busulfan immunoassay of U.S. Pat. No. 7,148,024. Type of data set: binding. Conditions: across the entire dose response curve. From the text: In accordance with a preferred embodiment of this invention, a competitive assay is provided utilizing the reagents and procedure disclosed in U.S. Pat. No. 7,148,024, whose disclosure is incorporated by reference In this preferred procedure, the preferred procedure as set forth in U.S. Pat. No. 7,148,024, utilized in its method antibodies produced from conjugates of an immunogenic polyamine polymer with a compound of the formula III-A:
[drawing 4] • wherein A′ is lower alkylene or lower alkenylene; • X′, Y, X, p and z are as above or mixtures thereof.
The fact that known concentrations of the amide of formula II can be calibrated with known concentrations of busulfan by means of a calibration assay can be seen from FIG. 3. […] These measured results are plotted against their relative concentrations. […] The amount or concentration of busulfan can be determined from the measured amount or concentration standards containing the amide of formula II by multiplying the measured results obtained from these amide standards by previously determined calibration factor which in the case of FIG. 3 is 0.107. In this manner one obtains the amount or concentration of busulfan in the samples based on the measured results with respect to the amide.

The conditions of data set [3]: cited from earlier work.
A short description of data set [4]: decomposition of busulfan standards in aqueous solution over time. Type of data set: physicochemical. Conditions: FIG. 1. The procedure:
In FIG. 1 a plurality of aqueous solutions of busulfan having varying concentrations of 100 ng/ml, 600 ng/ml, and 1200 ng/ml are incubated at room temperature. […] At room temperature for 5 days, more than 60% of the busulfan is decomposed.

For data set [5], the system named is antibodies specific for busulfan. Conditions: antibodies from immunogens of formulae III-A and III-B; cited from earlier work.

On to `CS(=O)(=O)NCCCCNS(C)(=O)=O` [amide of formula II], for which the time stable entry is “at least 4 weeks” in data set [1] (4° C., FIG. 2) and “at least 4 weeks” in data set [1] (45° C., FIG. 2). In addition, in data set [1] (stored at 4° C. and 45° C. for at least 4 weeks, FIG. 2), the decomposition on storage result is listed as “no decomposition”. In addition, the “storage of amide solutions without significant deterioration” value in data set [1] (without any special precautions) was “more than one year”. Besides, the “calibration factor (busulfan equivalence factor)” value with antibody to busulfan (FIG. 3, amide concentration x factor = busulfan equivalence) came out at 0.107. Further, the “busulfan calibrator concentration giving the same absorbance” value in the data set with antibody to busulfan (amide at 705 ng/mL, FIG. 3) stood at 75 ng/mL; in the data set with antibody to busulfan (amide at 1410 ng/mL, FIG. 3), 150 ng/mL; with antibody to busulfan (amide at 2820 ng/mL, FIG. 3), 300 ng/mL; in the data set on antibody to busulfan (amide at 5640 ng/mL, FIG. 3), 600 ng/mL; in the data set on antibody to busulfan (amide at 11280 ng/mL, FIG. 3) it was 200 ng/mL; in the data set with antibody to busulfan (amide at 18800 ng/mL, FIG. 3), 2000 ng/mL. The compound further came in with a cross-reactivity in the data set with antibody to busulfan (recovery compared to busulfan standard, 5000 ng/mL amide) of 10.7%. Also, in data set [2], the “relative cross reactivity as compared to busulfan” value is recorded as 17.5%.
Consider `CS(=O)(=O)OCCCCOS(C)(=O)=O` [busulfan], for which, in data set [3] (4° C., calibrator matrix spiked with busulfan), the “decomposition of busulfan calibrator” value is given as “decomposes within a day”. Moreover, the busulfan decomposed entry in data set [3] (room temperature for 5 days) and in data set [4] (room temperature for 5 days) was “more than 60%” throughout. Also, the half-life in data set [4] (aqueous solution, 37° C., aqueous solutions 100, 600, 1200 ng/ml) is 14 h.
For `O=S1(=O)CCC(O)C1` (centres unmarked) [tetrahydrothiophene-3-ol-1,1-dioxide], the “reaction or binding of the busulfan antibodies with blocking metabolites” value (from here on “reaction or binding”) in data set [5] was “do not substantially react with or bind to”.
Consider `C1CCSC1` [tetrahydrothiophene], for which the “reaction or binding” value in data set [5] was “do not substantially react with or bind to”.
As to `O=S1(=O)CCCC1` [tetramethylene sulfone], the “reaction or binding” value in data set [5] was “do not substantially react with or bind to”.
